The test system of one test is rat hepatic artery. Description: Recording of tension: relaxation of isolated rat hepatic artery contracted with phenylephrine.
Test [1] addresses cannabinoid CB1 receptors (Homo sapiens, UniProt P21554). The note with it: cited from earlier work.

Chain of cannabinoid CB1 receptors (P21554 whole entry): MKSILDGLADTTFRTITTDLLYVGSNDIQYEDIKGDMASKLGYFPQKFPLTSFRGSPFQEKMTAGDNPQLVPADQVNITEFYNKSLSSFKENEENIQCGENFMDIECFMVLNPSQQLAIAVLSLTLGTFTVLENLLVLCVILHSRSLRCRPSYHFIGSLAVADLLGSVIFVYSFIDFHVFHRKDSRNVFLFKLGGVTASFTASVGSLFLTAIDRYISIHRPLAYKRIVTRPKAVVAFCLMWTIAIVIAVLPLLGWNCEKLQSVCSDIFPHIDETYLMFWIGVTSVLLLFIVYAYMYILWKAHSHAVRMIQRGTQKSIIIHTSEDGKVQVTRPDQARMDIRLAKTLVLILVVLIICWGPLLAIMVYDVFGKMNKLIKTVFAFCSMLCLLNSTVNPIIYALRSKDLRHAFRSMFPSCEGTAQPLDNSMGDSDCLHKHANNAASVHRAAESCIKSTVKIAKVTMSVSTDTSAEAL

By Emax is commonly meant the size of the effect at its maximum, as opposed to the concentration needed. The term Ki denotes a dissociation constant, usually derived from enzyme kinetics or from competition with a known ligand. With `CCCCCC=CCC=CCC=CCC=CCCCC(=O)Nc1ccc(O)cc1` [AM404, N-(4-hydroxyphenyl)-5,8,11,14-eicosatetraenamide], the “vasodilator potency compared to anandamide” value with rat hepatic artery is on record as approximately 10 times. The compound further displayed an Emax in the test with rat hepatic artery (Rattus norvegicus, control (agonist alone)) of 97 ± 2%. For the same compound, in the test on rat hepatic artery (Rattus norvegicus, control (agonist alone), read-out: pEC50 of relaxation (converted)), the EC50 was 39.8 nM. In addition, the “effect on anandamide-induced relaxation” value in the test with rat hepatic artery (capsaicin 10 μM pre-treatment, 8-37 CGRP 2 μM, capsazepine 3 μM) was “inhibited this response”. In addition, the pEC50 of relaxation came to 7.3±0.2 with rat hepatic artery (control (agonist alone)) and 6.4±0.2 in the test with rat hepatic artery (in presence of capsazepine (3 μM)). Moreover, in test [1], the Ki is 1760 nM.
